US7781469B2, “Arylacetate derivatives having isoxazole skeleton” (Shionogi & Co., Ltd., priority 2005, dated 2010)

Tests used:
[1] = target: T1, human PPARδ (hPPARδ) (Homo sapiens, UniProt Q03181); assay: Test for transcriptional activity of PPARδ (GAL4 chimeric transcription factor luciferase reporter assay in CHO cells); format: cell-based; settings: concentration showing 1/2 of maximum luciferase activity
T1 construct: (δ: aa 139-C-end; α: aa 167-C-end); expressed in transfected cells
T1 sequence (Q03181 139-441 limits assumed): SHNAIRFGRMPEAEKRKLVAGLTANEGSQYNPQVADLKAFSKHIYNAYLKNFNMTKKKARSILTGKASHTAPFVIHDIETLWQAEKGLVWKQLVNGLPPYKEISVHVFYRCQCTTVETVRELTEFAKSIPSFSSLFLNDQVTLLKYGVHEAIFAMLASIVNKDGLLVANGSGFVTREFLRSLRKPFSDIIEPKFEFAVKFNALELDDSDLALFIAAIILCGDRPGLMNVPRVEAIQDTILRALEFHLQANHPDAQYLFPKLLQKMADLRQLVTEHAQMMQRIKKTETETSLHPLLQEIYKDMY
From the text: Test Example 1 Test for Transcriptional Activity of PPARδ and α
A chimeric transcription factor assay, which is commonly used to detect nuclear receptor activity, was employed to measure PPAR transcriptional activity. Specifically, two plasmids, one that expresses the fusion protein of DNA binding domain of yeast transcription factor GAL4 and a ligand binding domain of a receptor, and a reporter plasmid were transiently transfected to CHO cells. The activity of the promoter containing a recognition sequence of GAL4 coded on the reporter plasmid was used as a parameter to estimate the activity of the receptor. • Plasmid: The ligand binding domain of human PPARδ (hPPARδ) or α (hPPARα) (δ: aa 139-C-end; α: aa 167-C-end) is obtained by PCR amplification using Human Universal Quick-Clone cDNA (CLONTECH). Each amplified cDNA was subcloned into pCR2.1-TOPO vector (Invitrogen) and the identity of the cDNA clones was confirmed by the DNA sequence. Then, each obtained cDNA fragment was subcloned into pBIND vector (Promega) to construct a plasmid expressing the fusion protein with DNA binding domain of yeast transcription factor GAL4. pG51uc vector (Promega) was used as a reporter plasmid. • Cell culturing and transfection: CHO cells were cultured in 10% FBS-αMEM. With a 96-well plate (Costar), CHO cells, that were dispersed with trypsin treatment, 20000 cells per well and the two plasmids obtained by the above procedure, 25 ng per well, were transfected with FuGene Reagent (Roche) by following the instruction of the manufacture. • Measurement of the transcriptional activity: CHO cells 100 μl per well, which were transfected as above, were dispensed into the wells in which a test compound dissolved in DMSO 0.5 μl was spotted in advance. After the cells and a test compound were cultured together for 24 hours in a CO2 incubator, the luciferase activity was measured by adding luciferase substrates, PicaGene LT2.0 (Toyo ink) 100 μl per well. LUMINOUS CT-9000D (DIA-IATRON) is used to measure the activity.

Row | EC50 [1] [nM] | melting point [°C] | SMILES
1 | 9.8 |  | O=C(O)Cc1cccc(SCc2noc(-c3ccc(C(F)(F)F)cc3)c2C=NOCCF)c1 [X-6, {3-[4-(2-Fluoroethoxyiminomethyl)-5-(4-trifluoromethylphenyl)isoxazole-3-ylmethylsulfanyl]phenyl}acetic acid]
2 | 9.8 |  | CCON=Cc1c(CSc2cc(CC(=O)O)ccc2F)noc1-c1ccc(C(F)(F)F)cc1 [X-8]
3 | 12 | 131 to 133 | CCON=Cc1c(CSc2cccc(CC(=O)O)c2)noc1-c1ccc(C(F)(F)F)cc1 [X-25]
